From patent US20250176548A1, “POLYMERIC IMIDAZOLIUM COMPOUNDS FOR ENHANCING THE ACTIVITY OF ANTIMICROBIAL AGENTS” (BASF SE, priority 2022, published 2025)

Experiments:
[1] = test system: Salmonella enterica subsp. enterica (S enterica ATCC 10708); assay: Bactericidal activity of cleaner/disinfecting formulations, DIN EN 1276-2010, dirty conditions; assay type: cell-based; conditions: BAC 40 ppm in cleaner diluted 1:250; 0.3% bovine albumin, 35° C., 5 min contact time
Procedure: (§1) For biological activity testing, the following microorganisms were used: • Escherichia coli(E. coli DSM 682) • Salmonella enterica subsp. enterica (S enterica ATCC 10708)
(§2) The imidazolium polymer of example 1 (imidazolium polymer 1) and benzalkonium chloride (BAC) were formulated into various dilutable concentrated hard-surface cleaners. The finished formulations were pre-dissolved 1:200 in standardized hard water (DIN EN 1276-2010) and then diluted to 80% by adding 1 ml of the inoculate and 1 ml of bovine albumin solution to 8 ml of the pre-dissolved cleaner, so that in-test a dilution of 1:250 was obtained. The amounts relate to active substance.
(§3) Antimicrobial testing of the above formulations in 1:250 dilution was done according to European Standard (DIN EN 1276-2010) under dirty conditions, i.e. additional soiling of 0.3% bovine albumin at 35° C. and 5 min contact time. Neutralization was done using the Saponin-containing neutralizer as described in DIN EN 1276 (30 g/l Polysorbate 80+30 g/l Saponin+3 g/l Lecithin). Results are documented in the table below as logarithmic reduction (Ig R) in comparison to the number of microorganisms used for the test.

[2] = test system: Escherichia coli (E. coli DSM 682); assay: as above; assay type: cell-based; conditions: 0.3% bovine albumin, 35° C., 5 min contact time
Procedure: as §1, §2, §3
as §2, with “didecyldimethylammonium” for “benzalkonium”, “(DDAC)” for “(BAC)”
as §3, with “80+30 g/I” for “80+30 g/l”, “Saponin+3 g/I” for “Saponin+3 g/l”

Row | SMILES | S. enterica logarithmic reduction (lg R) [1] | E. coli logarithmic reduction (lg R) ([2]; BAC 20 ppm in cleaner diluted 1:250) | E. coli logarithmic reduction (lg R) ([2]; BAC 40 ppm in cleaner diluted 1:250) | E. coli logarithmic reduction (lg R) ([2]; DDAC 10 ppm in cleaner diluted 1:250) | E. coli logarithmic reduction (lg R) ([2]; DDAC 20 ppm in cleaner diluted 1:250)
1 | CCCCCCCCCCCC[N+](C)(C)Cc1ccccc1.[Cl-] [BAC, lauryl dimethyl benzyl ammonium chloride] | 0.5 lg R | 0.5 lg R | 2.7 lg R |  | 
2 | CCCCCCCCCC[N+](C)(C)CCCCCCCCCC.[Cl-] [DDAC, didecyldimethylammonium chloride] |  |  |  | 0.2 lg R | 1.2 lg R
